Source: ChEMBL document CHEMBL2062480, “Semi-synthesis and anti-tumor evaluation of novel 25-hydroxyprotopanaxadiol derivatives” (Eur J Med Chem, 2012)
pIC50: −log10 of the molar value.

Columns and labels:
[1] = test system: MCF7; experiment: Antiproliferative activity against human MCF7 cells after 48 hrs by MTT assay; format: functional, cell-based; details: for pIC50: MCF7, 48 h
[2] = test system: A549; experiment: Antiproliferative activity against human A549 cells after 48 hrs by MTT assay; format: functional, cell-based; details: A549, 48 h
[3] = Antiproliferative activity against human IOSE-144 cells after 48 hrs by MTT assay; format: cell-based; details: IOSE-144, 48 h
[4] = test system: LoVo; experiment: Antiproliferative activity against human LoVo cells after 48 hrs by MTT assay; format: functional, cell-based
[5] = test system: MCF7; experiment: Antiproliferative activity against human MCF7 cells assessed as cell viability at 30 uM after 48 hrs by MTT assay; format: functional; details: MCF7, 48 h, read-out: Activity

In the case of CCCCCCCCCCCCCCCCCC(=O)O[C@@H]1C[C@@H]2[C@@]3(C)CC[C@H](O)C(C)(C)[C@@H]3CC[C@@]2(C)[C@]2(C)CC[C@H]([C@](C)(O)CCCC(C)(C)O)[C@@H]12, the pIC50 [1] was < 4.00, the pIC50 [2] was < 4.00 and the pIC50 [3] was < 4.00. The pIC50 [4] was < 4.00.

In the case of CCC(=O)O[C@@H]1C[C@@H]2[C@@]3(C)CC[C@H](O)C(C)(C)[C@@H]3CC[C@@]2(C)[C@]2(C)CC[C@H]([C@](C)(O)CCCC(C)(C)O)[C@@H]12, the viability at 30 µM [5] was 17.1%, the pIC50 [1] was 4.98 and the pIC50 [2] was 4.75. The pIC50 [3] was < 4.00 and the pIC50 [4] was 4.39.

With CC(C)(O)CCC[C@@](C)(O)[C@H]1CC[C@]2(C)[C@@H]1[C@H](O)C[C@@H]1[C@@]3(C)CC[C@H](OC=O)C(C)(C)[C@@H]3CC[C@]12C the Activity [1] was “Dose-dependent effect”, the pIC50 [1] was 4.94 and the pIC50 [2] was 4.41. The pIC50 [3] was < 4.00 and the pIC50 [4] was < 4.30.

With CCCCCCCC/C=C\CCCCCCCC(=O)O[C@H]1CC[C@]2(C)[C@H]3C[C@@H](O)[C@@H]4[C@@H]([C@](C)(O)CCCC(C)(C)O)CC[C@@]4(C)[C@]3(C)CC[C@H]2C1(C)C the pIC50 [1] was < 4.00, the pIC50 [2] was < 4.00 and the pIC50 [3] was < 4.00. For the same compound, the pIC50 [4] was < 4.00.

With CC(C)(O)CCC[C@@](C)(O)[C@H]1CC[C@]2(C)[C@@H]1[C@H](OC=O)C[C@@H]1[C@@]3(C)CC[C@H](OC=O)C(C)(C)[C@@H]3CC[C@]12C the viability at 30 µM [5] was 10.6%, the pIC50 [1] was 5.96 and the pIC50 [2] was 4.90. The pIC50 [3] was < 4.00 and the pIC50 [4] was 4.31.

With CCCC(=O)O[C@H]1CC[C@]2(C)[C@H]3C[C@@H](O)[C@@H]4[C@@H]([C@](C)(O)CCCC(C)(C)O)CC[C@@]4(C)[C@]3(C)CC[C@H]2C1(C)C the pIC50 [1] was 4.37, the pIC50 [2] was 4.45 and the pIC50 [3] was < 4.00. For the same compound, the pIC50 [4] was < 4.30.

For CC(=O)O[C@H]1CC[C@]2(C)[C@H]3C[C@@H](O)[C@@H]4[C@@H]([C@](C)(O)CCCC(C)(C)O)CC[C@@]4(C)[C@]3(C)CC[C@H]2C1(C)C, the Activity [1] was “Dose-dependent effect”, the pIC50 [1] was 4.82 and the pIC50 [2] was 4.80. The pIC50 [3] was < 4.00 and the pIC50 [4] was < 4.30.

With CCCCCCCCCC(=O)O[C@H]1CC[C@]2(C)[C@H]3C[C@@H](O)[C@@H]4[C@@H]([C@](C)(O)CCCC(C)(C)O)CC[C@@]4(C)[C@]3(C)CC[C@H]2C1(C)C the pIC50 [1] was < 4.00, the pIC50 [2] was < 4.00 and the pIC50 [3] was < 4.00. The pIC50 [4] was < 4.30.

With CCCCCCCCCCCCCC(=O)O[C@H]1CC[C@]2(C)[C@H]3C[C@@H](O)[C@@H]4[C@@H]([C@](C)(O)CCCC(C)(C)O)CC[C@@]4(C)[C@]3(C)CC[C@H]2C1(C)C the pIC50 [1] was < 4.00, the pIC50 [2] was < 4.00 and the pIC50 [3] was < 4.00. For the same compound, the pIC50 [4] was < 4.00.

In the case of CCCCCCCCCCCC(=O)O[C@@H]1C[C@@H]2[C@@]3(C)CC[C@H](O)C(C)(C)[C@@H]3CC[C@@]2(C)[C@]2(C)CC[C@H]([C@](C)(O)CCCC(C)(C)O)[C@@H]12, the pIC50 [1] was < 4.00, the pIC50 [2] was < 4.00 and the pIC50 [3] was < 4.00. The pIC50 [4] was < 4.30.

With CCCCCCC(=O)O[C@H]1CC[C@]2(C)[C@H]3C[C@@H](O)[C@@H]4[C@@H]([C@](C)(O)CCCC(C)(C)O)CC[C@@]4(C)[C@]3(C)CC[C@H]2C1(C)C the pIC50 [1] was 4.47, the pIC50 [2] was 4.77 and the pIC50 [3] was < 4.00. For the same compound, the pIC50 [4] was < 4.30.

With CCCCC(=O)O[C@H]1CC[C@]2(C)[C@H]3C[C@@H](O)[C@@H]4[C@@H]([C@](C)(O)CCCC(C)(C)O)CC[C@@]4(C)[C@]3(C)CC[C@H]2C1(C)C the pIC50 [1] was < 4.30, the pIC50 [2] was < 4.30 and the pIC50 [3] was < 4.00. For the same compound, the pIC50 [4] was < 4.30.

CC(=O)O[C@@H]1C[C@@H]2[C@@]3(C)CC[C@H](O)C(C)(C)[C@@H]3CC[C@@]2(C)[C@]2(C)CC[C@H]([C@](C)(O)CCCC(C)(C)O)[C@@H]12 showed a viability at 30 µM [5] of 13.2%, a pIC50 [1] of 4.82 and a pIC50 [2] of 4.98. For the same compound, the pIC50 [3] was < 4.00 and the pIC50 [4] was 4.43.

For CCCCCCCCC(=O)O[C@H]1CC[C@]2(C)[C@H]3C[C@@H](O)[C@@H]4[C@@H]([C@](C)(O)CCCC(C)(C)O)CC[C@@]4(C)[C@]3(C)CC[C@H]2C1(C)C, the pIC50 [1] was < 4.30, the pIC50 [2] was < 4.30 and the pIC50 [3] was < 4.00. For the same compound, the pIC50 [4] was < 4.30.

In the case of CCC(=O)O[C@H]1CC[C@]2(C)[C@H]3C[C@@H](O)[C@@H]4[C@@H]([C@](C)(O)CCCC(C)(C)O)CC[C@@]4(C)[C@]3(C)CC[C@H]2C1(C)C, the Activity [1] was “Dose-dependent effect”, the pIC50 [1] was 4.90 and the pIC50 [2] was 4.36. The pIC50 [3] was < 4.00 and the pIC50 [4] was < 4.30.

For CCCCCCCCCCCCCCCC(=O)O[C@@H]1C[C@@H]2[C@@]3(C)CC[C@H](O)C(C)(C)[C@@H]3CC[C@@]2(C)[C@]2(C)CC[C@H]([C@](C)(O)CCCC(C)(C)O)[C@@H]12, the pIC50 [1] was < 4.30, the pIC50 [2] was < 4.30 and the pIC50 [3] was < 4.00. The pIC50 [4] was < 4.00.

With CCCCCCC(=O)O[C@@H]1C[C@@H]2[C@@]3(C)CC[C@H](O)C(C)(C)[C@@H]3CC[C@@]2(C)[C@]2(C)CC[C@H]([C@](C)(O)CCCC(C)(C)O)[C@@H]12 the pIC50 [1] was 4.79, the pIC50 [2] was 4.78 and the pIC50 [3] was < 4.00. The pIC50 [4] was 4.32.

With CCC(=O)O[C@H]1CC[C@]2(C)[C@H]3C[C@@H](OC(=O)CC)[C@@H]4[C@@H]([C@](C)(O)CCCC(C)(C)O)CC[C@@]4(C)[C@]3(C)CC[C@H]2C1(C)C the pIC50 [1] was 4.69, the pIC50 [2] was 4.83 and the pIC50 [3] was < 4.00. It also gave a pIC50 [4] of 4.34.

CC(C)(O)CCC[C@@](C)(O)[C@H]1CC[C@]2(C)[C@@H]1[C@H](O)C[C@@H]1[C@@]3(C)CC[C@H](O)C(C)(C)[C@@H]3CC[C@]12C showed a viability at 30 µM [5] of 66.3%, a pIC50 [1] of 4.31 and a pIC50 [2] of 4.47. The pIC50 [3] was < 4.00 and the pIC50 [4] was 4.34.

With CCCCCCCC/C=C\CCCCCCCC(=O)O[C@@H]1C[C@@H]2[C@@]3(C)CC[C@H](O)C(C)(C)[C@@H]3CC[C@@]2(C)[C@]2(C)CC[C@H]([C@](C)(O)CCCC(C)(C)O)[C@@H]12 the pIC50 [1] was < 4.00, the pIC50 [2] was < 4.00 and the pIC50 [3] was < 4.00. The pIC50 [4] was < 4.00.

O=c1[nH]cc(F)c(=O)[nH]1 [FLUOROURACIL] showed a viability at 30 µM [5] of 42.5%, a pIC50 [1] of 4.79 and a pIC50 [2] of 4.89. It also gave a pIC50 [3] of 4.59 and a pIC50 [4] of 5.48.

With CCCCCCCCCCCCCCCC(=O)O[C@H]1CC[C@]2(C)[C@H]3C[C@@H](O)[C@@H]4[C@@H]([C@](C)(O)CCCC(C)(C)O)CC[C@@]4(C)[C@]3(C)CC[C@H]2C1(C)C the pIC50 [1] was < 4.00, the pIC50 [2] was < 4.00 and the pIC50 [3] was < 4.00. For the same compound, the pIC50 [4] was < 4.00.

In the case of CCCCCCCCCCCCCC(=O)O[C@@H]1C[C@@H]2[C@@]3(C)CC[C@H](O)C(C)(C)[C@@H]3CC[C@@]2(C)[C@]2(C)CC[C@H]([C@](C)(O)CCCC(C)(C)O)[C@@H]12, the pIC50 [1] was < 4.00, the pIC50 [2] was < 4.00 and the pIC50 [3] was < 4.00. The pIC50 [4] was < 4.00.

In the case of CCCCC(=O)O[C@H]1CC[C@]2(C)[C@H]3C[C@@H](OC(=O)CCCC)[C@@H]4[C@@H]([C@](C)(O)CCCC(C)(C)O)CC[C@@]4(C)[C@]3(C)CC[C@H]2C1(C)C, the pIC50 [1] was < 4.30, the pIC50 [2] was 4.30 and the pIC50 [3] was < 4.00. For the same compound, the pIC50 [4] was < 4.30.

With CCCCCCCCCCCC(=O)O[C@H]1CC[C@]2(C)[C@H]3C[C@@H](O)[C@@H]4[C@@H]([C@](C)(O)CCCC(C)(C)O)CC[C@@]4(C)[C@]3(C)CC[C@H]2C1(C)C the pIC50 [1] was < 4.00, the pIC50 [2] was < 4.00 and the pIC50 [3] was < 4.00. The pIC50 [4] was < 4.00.

For CCCCCCCC(=O)O[C@H]1CC[C@]2(C)[C@H]3C[C@@H](O)[C@@H]4[C@@H]([C@](C)(O)CCCC(C)(C)O)CC[C@@]4(C)[C@]3(C)CC[C@H]2C1(C)C, the pIC50 [1] was < 4.00, the pIC50 [2] was 4.33 and the pIC50 [3] was < 4.00. For the same compound, the pIC50 [4] was < 4.30.

CC(C)(O)CCC[C@@](C)(O)[C@H]1CC[C@]2(C)[C@@H]1[C@H](OC=O)C[C@@H]1[C@@]3(C)CC[C@H](O)C(C)(C)[C@@H]3CC[C@]12C showed a viability at 30 µM [5] of 15.1%, a pIC50 [1] of 4.94 and a pIC50 [2] of 4.80. The pIC50 [3] was < 4.00 and the pIC50 [4] was 4.30.

In the case of CCCCCCCCCC(=O)O[C@@H]1C[C@@H]2[C@@]3(C)CC[C@H](O)C(C)(C)[C@@H]3CC[C@@]2(C)[C@]2(C)CC[C@H]([C@](C)(O)CCCC(C)(C)O)[C@@H]12, the pIC50 [1] was 4.58, the pIC50 [2] was 4.53 and the pIC50 [3] was < 4.00. For the same compound, the pIC50 [4] was < 4.30.

For CCCCCC(=O)O[C@H]1CC[C@]2(C)[C@H]3C[C@@H](O)[C@@H]4[C@@H]([C@](C)(O)CCCC(C)(C)O)CC[C@@]4(C)[C@]3(C)CC[C@H]2C1(C)C, the pIC50 [1] was < 4.30, the pIC50 [2] was 4.58 and the pIC50 [3] was < 4.00. For the same compound, the pIC50 [4] was < 4.30.

With CC(=O)O[C@H]1CC[C@]2(C)[C@H]3C[C@@H](OC(C)=O)[C@@H]4[C@@H]([C@](C)(O)CCCC(C)(C)O)CC[C@@]4(C)[C@]3(C)CC[C@H]2C1(C)C the pIC50 [1] was 4.60, the pIC50 [2] was 4.83 and the pIC50 [3] was < 4.00. For the same compound, the pIC50 [4] was 4.36.

With CCCCCCCCCCCCCCCCCC(=O)O[C@H]1CC[C@]2(C)[C@H]3C[C@@H](O)[C@@H]4[C@@H]([C@](C)(O)CCCC(C)(C)O)CC[C@@]4(C)[C@]3(C)CC[C@H]2C1(C)C the pIC50 [1] was < 4.00, the pIC50 [2] was < 4.00 and the pIC50 [3] was < 4.00. The pIC50 [4] was < 4.00.

For CCCC(=O)O[C@@H]1C[C@@H]2[C@@]3(C)CC[C@H](O)C(C)(C)[C@@H]3CC[C@@]2(C)[C@]2(C)CC[C@H]([C@](C)(O)CCCC(C)(C)O)[C@@H]12, the viability at 30 µM [5] was 28.5%, the pIC50 [1] was 4.48 and the pIC50 [2] was 4.59. For the same compound, the pIC50 [3] was < 4.00 and the pIC50 [4] was 4.42.
